Assay in all cases: biochemical
What all share (set-up): DiscoverX KinomeScan competition binding assay across human kinases; per cent of control at 10 and 100 uM

In one experiment the target is MYLK (Homo sapiens, UniProt Q15746). The note with it: competition binding, % of control. A digest of the protocol: (§1)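 KinomeScan competition binding was run across a human kinase panel at 10 μM and 100 μM levosimendan. Results are %control = (test − positive control)/(negative control − positive control) × 100.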
A further experiment addresses CSNK2A1 (Homo sapiens, UniProt P68400). The settings on record: competition binding, % of control; read-out: Percent Control (100 uM Levosimendan). The essentials: as §1
The target in a further experiment is ERBB2 (Homo sapiens, UniProt P04626). The settings on record: competition binding, % of control; read-out: Percent Control (100 uM Levosimendan). A digest of the protocol:
as §1

The target in another experiment is T1, GCN2(Kin.Dom.2,S808G) (Homo sapiens, UniProt Q9P2K8, S808G).
T1 construct: gene EIF2AK4; Kin.Dom.2
The settings on record: competition binding, % of control; read-out: Percent Control (100 uM Levosimendan). A digest of the protocol:
as §1

The target of another experiment is T2, MLK3 (Homo sapiens, UniProt Q16584).
T2 construct: gene MAP3K11
The settings on record: competition binding, % of control; read-out: Percent Control (100 uM Levosimendan). A digest of the protocol: as §1

A further experiment addresses AURKA (Homo sapiens, UniProt O14965). The settings on record: competition binding, % of control; read-out: Percent Control (100 uM Levosimendan). A digest of the protocol: as §1
A further experiment concerns the target T3, YANK3 (Homo sapiens, UniProt Q86UX6).
T3 construct: gene STK32C
The settings on record: competition binding, % of control; read-out: Percent Control (100 uM Levosimendan). The essentials: as §1

In another experiment the target is PKMYT1 (Homo sapiens, UniProt Q99640). The note with it: competition binding, % of control; read-out: Percent Control (100 uM Levosimendan). The essentials: as §1
A further experiment deals with LRRK2(G2019S) (Homo sapiens, UniProt Q5S007, G2019S). The settings on record: competition binding, % of control; read-out: Percent Control (100 uM Levosimendan). A digest of the protocol:
as §1

A further experiment addresses CAMK2D (Homo sapiens, UniProt Q13557). The settings on record: competition binding, % of control; read-out: Percent Control (100 uM Levosimendan). A digest of the protocol: as §1
Another experiment concerns the target EPHB6 (Homo sapiens, UniProt O15197). The settings on record: competition binding, % of control. The essentials: as §1
In another experiment the target is ABL2 (Homo sapiens, UniProt P42684). The note with it: competition binding, % of control; read-out: Percent Control (100 uM Levosimendan). The essentials:
as §1

The target of the next experiment is PAK3 (Homo sapiens, UniProt O75914). The settings on record: competition binding, % of control; read-out: Percent Control (100 uM Levosimendan). The essentials: as §1
A further experiment deals with PIP5K1A (Homo sapiens, UniProt Q99755). The note with it: competition binding, % of control. The essentials: as §1
The target of another experiment is PRKCE (Homo sapiens, UniProt Q02156). The note with it: competition binding, % of control; read-out: Percent Control (100 uM Levosimendan). The essentials: as §1
For a further experiment, the target named is FES (Homo sapiens, UniProt P07332). The settings on record: competition binding, % of control; read-out: Percent Control (100 uM Levosimendan). The essentials: as §1
In experiment [1] the target is T4, RSK3(Kin.Dom.1-N-terminal) (Homo sapiens, UniProt Q15349).
T4 construct: gene RPS6KA2; Kin.Dom.1-N-terminal
The note with it: competition binding, % of control; read-out: Percent Control (100 uM Levosimendan). The essentials:
as §1

The target in a further experiment is PIM2 (Homo sapiens, UniProt Q9P1W9). The note with it: competition binding, % of control. The essentials:
as §1

Where [2] appears, read: read-out: Percent Control (10 uM Levosimendan).
[3] abbreviates: read-out: Percent Control (100 uM Levosimendan).

Each structure is given as a SMILES string.

Chain of MYLK (Q15746 whole entry): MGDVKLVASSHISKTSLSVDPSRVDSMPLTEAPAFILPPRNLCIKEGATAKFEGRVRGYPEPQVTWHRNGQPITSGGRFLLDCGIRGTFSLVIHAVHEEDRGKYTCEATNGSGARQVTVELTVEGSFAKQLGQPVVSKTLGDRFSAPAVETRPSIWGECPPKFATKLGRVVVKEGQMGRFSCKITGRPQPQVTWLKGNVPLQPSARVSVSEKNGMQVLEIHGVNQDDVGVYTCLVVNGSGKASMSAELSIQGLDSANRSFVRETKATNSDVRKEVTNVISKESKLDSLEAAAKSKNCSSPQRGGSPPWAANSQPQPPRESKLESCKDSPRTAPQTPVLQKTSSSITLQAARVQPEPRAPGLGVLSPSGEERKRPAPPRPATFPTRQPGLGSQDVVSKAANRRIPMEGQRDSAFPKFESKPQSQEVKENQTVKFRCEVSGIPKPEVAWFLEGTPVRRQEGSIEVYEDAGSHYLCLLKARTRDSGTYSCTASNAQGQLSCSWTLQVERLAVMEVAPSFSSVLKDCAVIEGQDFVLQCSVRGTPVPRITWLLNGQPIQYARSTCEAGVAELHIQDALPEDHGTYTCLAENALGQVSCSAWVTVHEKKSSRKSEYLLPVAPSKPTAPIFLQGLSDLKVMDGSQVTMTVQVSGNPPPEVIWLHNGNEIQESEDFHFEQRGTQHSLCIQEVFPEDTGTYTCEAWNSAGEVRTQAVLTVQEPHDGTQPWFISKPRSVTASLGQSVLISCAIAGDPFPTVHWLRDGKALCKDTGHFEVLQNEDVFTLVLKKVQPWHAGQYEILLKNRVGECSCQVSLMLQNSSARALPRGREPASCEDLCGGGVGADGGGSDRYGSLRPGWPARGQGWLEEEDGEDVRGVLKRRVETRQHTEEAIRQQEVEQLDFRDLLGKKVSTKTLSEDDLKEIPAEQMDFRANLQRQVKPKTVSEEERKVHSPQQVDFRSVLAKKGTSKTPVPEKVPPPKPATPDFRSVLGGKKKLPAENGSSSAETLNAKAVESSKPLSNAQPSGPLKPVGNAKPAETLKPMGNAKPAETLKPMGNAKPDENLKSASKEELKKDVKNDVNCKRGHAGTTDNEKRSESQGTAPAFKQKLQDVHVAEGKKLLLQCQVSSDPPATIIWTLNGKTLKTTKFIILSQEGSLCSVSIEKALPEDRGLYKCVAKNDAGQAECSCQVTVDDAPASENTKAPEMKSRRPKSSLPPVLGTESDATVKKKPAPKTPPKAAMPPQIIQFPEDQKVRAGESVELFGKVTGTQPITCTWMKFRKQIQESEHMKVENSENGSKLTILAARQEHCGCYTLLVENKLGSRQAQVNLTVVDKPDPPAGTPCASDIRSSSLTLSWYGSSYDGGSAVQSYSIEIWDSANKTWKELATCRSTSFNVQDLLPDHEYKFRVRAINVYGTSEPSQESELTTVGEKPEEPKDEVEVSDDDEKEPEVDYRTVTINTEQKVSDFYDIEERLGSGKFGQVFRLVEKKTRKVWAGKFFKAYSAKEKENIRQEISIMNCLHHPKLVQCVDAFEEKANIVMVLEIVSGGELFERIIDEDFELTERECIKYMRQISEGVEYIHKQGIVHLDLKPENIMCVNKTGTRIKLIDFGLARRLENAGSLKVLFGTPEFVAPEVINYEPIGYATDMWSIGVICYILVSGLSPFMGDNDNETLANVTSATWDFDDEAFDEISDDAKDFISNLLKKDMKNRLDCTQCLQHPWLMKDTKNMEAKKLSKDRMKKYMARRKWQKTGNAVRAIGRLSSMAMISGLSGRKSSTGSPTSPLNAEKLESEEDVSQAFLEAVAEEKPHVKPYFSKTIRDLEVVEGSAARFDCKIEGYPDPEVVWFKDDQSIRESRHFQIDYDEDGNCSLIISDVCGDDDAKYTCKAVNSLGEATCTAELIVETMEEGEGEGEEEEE
Chain of PIP5K1A (Q99755 whole entry): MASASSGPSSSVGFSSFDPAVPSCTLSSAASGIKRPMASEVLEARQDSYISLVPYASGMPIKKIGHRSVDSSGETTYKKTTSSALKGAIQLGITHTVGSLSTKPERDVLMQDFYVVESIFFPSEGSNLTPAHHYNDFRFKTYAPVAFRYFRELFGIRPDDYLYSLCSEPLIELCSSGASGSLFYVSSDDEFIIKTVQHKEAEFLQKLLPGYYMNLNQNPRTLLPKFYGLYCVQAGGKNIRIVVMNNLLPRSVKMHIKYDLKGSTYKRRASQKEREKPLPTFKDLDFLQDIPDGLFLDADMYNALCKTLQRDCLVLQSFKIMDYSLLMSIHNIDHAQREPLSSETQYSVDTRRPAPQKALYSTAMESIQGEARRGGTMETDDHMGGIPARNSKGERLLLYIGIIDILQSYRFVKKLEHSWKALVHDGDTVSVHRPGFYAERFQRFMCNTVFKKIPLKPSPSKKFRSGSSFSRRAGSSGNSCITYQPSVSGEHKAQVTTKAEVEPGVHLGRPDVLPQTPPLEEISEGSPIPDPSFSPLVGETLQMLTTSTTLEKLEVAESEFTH
Chain of EPHB6 (O15197 whole entry): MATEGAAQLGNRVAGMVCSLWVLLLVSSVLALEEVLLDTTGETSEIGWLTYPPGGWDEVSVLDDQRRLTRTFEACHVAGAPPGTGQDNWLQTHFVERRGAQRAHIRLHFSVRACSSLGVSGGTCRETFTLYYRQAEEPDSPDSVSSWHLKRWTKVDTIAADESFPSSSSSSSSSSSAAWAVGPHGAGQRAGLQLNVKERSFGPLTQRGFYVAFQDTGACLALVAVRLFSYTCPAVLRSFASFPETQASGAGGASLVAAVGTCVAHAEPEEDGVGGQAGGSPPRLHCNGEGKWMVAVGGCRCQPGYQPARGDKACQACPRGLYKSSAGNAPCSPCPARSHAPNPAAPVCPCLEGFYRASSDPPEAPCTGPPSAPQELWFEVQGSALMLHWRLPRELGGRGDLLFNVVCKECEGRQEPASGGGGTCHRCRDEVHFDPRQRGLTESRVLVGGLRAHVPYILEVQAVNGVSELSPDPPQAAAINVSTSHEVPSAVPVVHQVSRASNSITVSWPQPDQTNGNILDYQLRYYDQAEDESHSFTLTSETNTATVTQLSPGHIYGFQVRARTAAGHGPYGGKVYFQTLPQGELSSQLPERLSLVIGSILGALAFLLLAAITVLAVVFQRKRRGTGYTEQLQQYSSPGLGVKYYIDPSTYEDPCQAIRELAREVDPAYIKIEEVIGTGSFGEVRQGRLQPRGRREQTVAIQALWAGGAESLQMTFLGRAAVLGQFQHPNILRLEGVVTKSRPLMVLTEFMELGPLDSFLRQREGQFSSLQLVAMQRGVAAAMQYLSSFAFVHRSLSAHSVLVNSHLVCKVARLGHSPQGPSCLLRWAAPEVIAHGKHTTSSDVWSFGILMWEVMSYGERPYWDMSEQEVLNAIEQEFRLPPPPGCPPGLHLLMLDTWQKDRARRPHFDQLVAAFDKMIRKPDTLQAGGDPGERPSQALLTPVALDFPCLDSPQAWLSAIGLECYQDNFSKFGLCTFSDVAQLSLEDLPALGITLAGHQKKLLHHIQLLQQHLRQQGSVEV
Chain of PIM2 (Q9P1W9 whole entry): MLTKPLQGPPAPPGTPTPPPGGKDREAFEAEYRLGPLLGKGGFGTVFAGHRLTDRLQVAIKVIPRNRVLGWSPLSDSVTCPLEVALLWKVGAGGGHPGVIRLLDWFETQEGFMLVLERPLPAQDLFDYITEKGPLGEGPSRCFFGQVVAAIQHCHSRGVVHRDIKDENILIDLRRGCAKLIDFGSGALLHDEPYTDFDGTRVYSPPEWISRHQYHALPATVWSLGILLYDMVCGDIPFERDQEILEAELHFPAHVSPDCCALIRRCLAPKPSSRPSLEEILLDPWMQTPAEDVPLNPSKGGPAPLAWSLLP
Chain of CAMK2D (Q13557 whole entry): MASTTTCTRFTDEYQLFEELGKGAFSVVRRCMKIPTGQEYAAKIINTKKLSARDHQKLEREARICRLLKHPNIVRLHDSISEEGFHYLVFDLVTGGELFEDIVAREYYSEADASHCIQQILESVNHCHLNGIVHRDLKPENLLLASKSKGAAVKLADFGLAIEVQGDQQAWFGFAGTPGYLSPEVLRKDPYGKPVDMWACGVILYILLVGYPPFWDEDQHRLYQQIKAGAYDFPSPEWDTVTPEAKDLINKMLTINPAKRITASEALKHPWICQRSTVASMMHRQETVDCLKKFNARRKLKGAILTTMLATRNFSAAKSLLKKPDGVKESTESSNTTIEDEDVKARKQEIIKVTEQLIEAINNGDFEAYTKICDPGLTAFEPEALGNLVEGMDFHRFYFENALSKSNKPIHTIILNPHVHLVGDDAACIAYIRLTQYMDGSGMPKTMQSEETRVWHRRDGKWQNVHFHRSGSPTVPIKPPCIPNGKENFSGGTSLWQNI
T4 sequence (Q15349 whole entry): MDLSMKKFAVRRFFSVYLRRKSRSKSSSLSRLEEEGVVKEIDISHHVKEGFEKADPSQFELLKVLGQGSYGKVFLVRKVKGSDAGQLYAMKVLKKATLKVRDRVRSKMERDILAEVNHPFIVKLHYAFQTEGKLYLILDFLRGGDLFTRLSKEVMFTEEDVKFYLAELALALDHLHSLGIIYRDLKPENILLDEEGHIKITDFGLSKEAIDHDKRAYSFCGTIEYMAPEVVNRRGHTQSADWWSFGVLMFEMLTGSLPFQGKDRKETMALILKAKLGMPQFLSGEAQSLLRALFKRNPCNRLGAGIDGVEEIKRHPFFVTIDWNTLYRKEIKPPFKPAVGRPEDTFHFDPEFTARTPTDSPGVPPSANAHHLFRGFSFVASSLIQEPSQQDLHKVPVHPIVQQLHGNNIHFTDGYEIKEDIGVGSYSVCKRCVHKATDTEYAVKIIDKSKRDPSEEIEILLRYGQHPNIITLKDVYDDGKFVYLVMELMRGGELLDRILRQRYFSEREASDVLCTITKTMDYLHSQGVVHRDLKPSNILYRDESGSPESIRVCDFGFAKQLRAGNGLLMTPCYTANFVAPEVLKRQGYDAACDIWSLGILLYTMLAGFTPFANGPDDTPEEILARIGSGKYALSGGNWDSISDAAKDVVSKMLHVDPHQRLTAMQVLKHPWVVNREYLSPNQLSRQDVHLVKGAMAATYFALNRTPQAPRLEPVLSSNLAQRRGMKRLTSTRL

As for `C[C@@H]1CC(=O)NN=C1c1ccc(NN=C(C#N)C#N)cc1` [levosimendan], the remaining binding at 10 µM worked out at 38% on MYLK (setting [2]), 56% on EPHB6 (setting [2]), 22% on PIP5K1A (setting [2]) and 84% on PIM2 (setting [2]). The remaining binding at 100 µM on MYLK (setting [3]) was 32%; at CSNK2A1, 100%; at ERBB2 it was 100%; on GCN2(Kin.Dom.2,S808G) it was 100%; on MLK3, 73%; on AURKA, 73%. In addition, the remaining binding at 100 µM on YANK3 is 73%; at PKMYT1, 57%; on LRRK2(G2019S), 100%; on CAMK2D, 87%; on EPHB6 (setting [3]) it was 16%; on ABL2, 89%. Also, the remaining binding at 100 µM at PAK3 came to 99%; on PIP5K1A (setting [3]) it was 6.2%; on PRKCE, 100%; on FES, 76%; in experiment [1], 100%; on PIM2 (setting [3]), 20%.
